# Patent US20220347085A1, “REPELLENT COMPOSITION AND USES” (Université Bourgogne, priority 2019, published 2022)
# Key:
# Format in all cases: in vivo
# Drosophila melanogaster [1] = experiment: Courtship of male Drosophila melanogaster towards females, olfactory exposure
# Method: 1.1. Drosophila melanogaster
# Drosophilae (Drosophila melanogaster) aged from 3 to 9 days are used for the courtship tests as described Grosjean et al. Nat. Neurosci. 2008 [1] and Grosjean et al. Nature 2011 [2].
# Naive males were isolated in tubes, individually, upon emerging from their puparium. The females were selected to be virgin and were stored in tubes of 10 individuals. These tubes were placed in incubators, for which a temperature of 25° C. was kept constant. A 12 hour/12 hour day/night cycle was applied. The courtship tests were carried out in the morning, between 1 and 3 hours after the start of the day cycle.
# These tests were conducted in devices made up of 6 cylindrical, transparent, and closed alveolae (see FIG. 15) of a volume of […]. A disk of filter paper (Whatman, filter paper 42) of 6 mm in diameter is deposited on the base thereof. Said paper is soaked in 10 μl of a composition comprising propionic acid and/or butyric acid diluted in paraffin oil (solvent). The different compositions used comprised, respectively, 0.5% or 1% propionic acid, 0.5% or 1% butyric acid. For each concentration, the number of pairs of flies tested was, respectively, 23, 23, 19 and 19. At the time of the test, 1 pair per alveolus was introduced into the behavior device (i.e. 6 pairs). Said pair was made up of one male and one female, each originating from the tubes mentioned above. The drosophilae were physically isolated from the odor source (said paper) by a netting which prevents any direct contact, the female had been decapitated but remained alive. In addition, the device was illuminated by red light (red far from the wavelength of between 625 and 630 nm) so as to eliminate any behavior associated with the visual perception which, in D. melanogaster, is between 300 and 550 nm)). Thus, the behavior observed depends only on the olfactory perception by the male of the compound introduced into the device at the time of the assembly thereof.
# The behavior was filmed for 10 minutes, using a Sony HDR-XR550 camera. Each film was recorded and kept for subsequent analysis.
# A proportion of courtship, expressed as a percentage, was then calculated, and represents the time during which the male courts the female during the 10 minutes of recording the test. The courtship of the Drosophila melanogaster is decomposed into recognizable stereotypical events, and described precisely in scientific literature (Greenspan & Ferveur, Annu. Rev. Genet, 2000 [3]). A statistical test (Mann-Whitney test (nonparametric test, GraphPad, Prism8)) was carried out in order to evaluate the influence, on the behavior, of the composition in which the paper is soaked; this involving a release of volatile compounds and an odor perceived by the drosophilae. […]
# Drosophila suzukii [2] = experiment: Evaluation of the copulation of Drosophila suzukii; settings: 10 min observation
# Method: 2. Evaluation of the Copulation From the films recorded for studying the courtship behavior of Drosophila suzukii, a percentage of the number of pairs copulating during the 10 minutes of observation was calculated on the basis of the composition in which the filter paper was soaked. A statistical evaluation was carried out, and different tests were performed. In particular, a Kruskal-Wallis test followed by a post-hoc Dunn's Multiple Comparison Test were carried out (GraphPad, Prism6) in order to quantify the influence, on the number of copulating individuals, of the composition in which the paper is soaked and which involves a release of volatile compounds and an odor perceived.
# Drosophila suzukii [3] = experiment: Anesthesia test, Drosophila suzukii; settings: 2% in paraffin oil
# Method: The devices used were similar to the devices for studying the courtship (example 1 above), except for the volume of the space into which the files were introduced, which was 45.24 or 22.62 cm^3. 9 discs of filter paper (Whatman, filter paper 42), each soaked in 10 μl of a composition comprising butyric acid and/or propionic acid and/or a derivative of propionic acid diluted in paraffin oil were deposited in the device. The different compositions used comprised, respectively, 2% propionic acid or 2% butyric acid or 5% ethyl propanoate or 10% ethyl propanoate or 30% ethyl propanoate. For each composition, the number of flies was, respectively, 30 and 24 males, 30 and 11 females for Drosophila melanogaster, and 24, 16 and 4 males, 28, 26, 6, 5 and 4 females for Drosophila suzukii. In order to avoid any contact of the flies with the soaked disks of paper, a gauze (netting) was arranged above said papers. The drosophilae could move freely on said gauze. The quantity of compound, butyric acid or propionic acid, or of ethyl propanoate (odor) volatilized in the behavior chamber was equivalent to that of the device used for the courtship. Likewise, the flies were never in direct contact with the composition (no taste perception), only with the volatile particles (olfactory perception). The flies tested were introduced simultaneously, by group, into the enclosure. Their behavior was filed for 10 minutes, and a time required for leading to anesthesia was calculated over this period, depending on the concentration of butyric acid or propionic acid or ethyl propanoate used. The flies were considered anesthetized when they stopped moving and fell on their side.
# Drosophila melanogaster [4] = experiment: Test in a box (repellent effect), Drosophila melanogaster; settings: 1250 cm^3 box; for courtship and copulation in the box / survival of flies in the box: 24 hours
# Method: 2. Tests “in a Box” (Repellent Effect)
# The sensitivity of the drosophilae was evaluated over a period of between 0 minutes and 24 hours, according to the conditions (see results) in closed and transparent boxes of 1250 cm^3.
# An odor source, i.e. a composition comprising butyric acid or propionic acid in paraffin oil, was deposited on a filter paper at the base of a 50 mm petri dish. The petri dish is introduced into a test box and covered with a gauze Securimed M8202 sterile gauze pad) in order to prevent the flies from getting stuck on the oily odorous compound.
# The concentrations used were 2%, 6% or 20% propionic acid.
# A second Petri dish containing 5 to 6 grams of synthetic food used for breeding drosophilae in laboratories was placed in the test box, i.e. 6.5% maize flour, 6.5% (v/v) yeast extract, 1% (v/v) agar-agar, and 3% (v/v) of a 0.1% (v/v) antifungal solution (Tegosept (Apex)) in ethanol at 95%. This latter provides the water and/or the food which the flies needed during the test, and eliminated the possibility of an event due to dehydration of the individuals tested.
# Drosophila melanogaster or suzukii were then introduced by groups into the test box, and moved there freely over time. Their behavior in the presence of a composition as mentioned above was observed and photographed (Apple iPhone 6S).
# [5] = 1% in paraffin oil, compared with solvent alone, red light, decapitated female
smiles,measurement,setting,value
CCCC(=O)O [butyric acid],proportion of courtship of males towards females,"Drosophila melanogaster [1]; 0.5% in paraffin oil, compared with solvent alone",significantly reduced
same,proportion of courtship of males towards females,Drosophila melanogaster [1]; [5],significantly reduced
same,reduction of the proportion of copulation,Drosophila suzukii [2]; 0.1% in solvent,70.55%
same,proportion of copulation,Drosophila suzukii [2]; 0.5% in solvent,3.03%
same,reduction of the proportion of copulation,Drosophila suzukii [2]; 0.5% in solvent,83.03%
same,proportion of copulation,Drosophila suzukii [2]; 1% in solvent,zero
same,time elapsed leading to anesthesia,Drosophila suzukii [3]; female flies (FIG. 17),approximately 5 minutes
same,time elapsed leading to anesthesia,Drosophila suzukii [3]; male flies and female flies,approximately 5 minutes
CCC(=O)O [propionic acid],proportion of courtship of males towards females,Drosophila melanogaster [1]; [5],significantly changed
same,proportion of courtship of males towards females,"Drosophila melanogaster [1]; 1% in solvent, compared with 0.5% in solvent",significantly reduced
same,courtship and copulation in the box,Drosophila melanogaster [4]; 2% in paraffin oil,court and copulate
same,survival of flies in the box,Drosophila melanogaster [4]; 2% in paraffin oil,still alive after 24 hours
same,courtship and copulation in the box,Drosophila melanogaster [4]; 6% in paraffin oil,court and copulate
same,survival of flies in the box,Drosophila melanogaster [4]; 6% in paraffin oil,still alive after 24 hours
same,anesthesia at a distance in the box,Drosophila melanogaster [4]; 20% in solvent,anesthetized in the test hour
same,repellent behavior (location of flies relative to odor source),Drosophila melanogaster [4]; 20% in solvent,keep away from the filter paper
same,reduction of the proportion of copulation,Drosophila suzukii [2]; 0.1% in solvent,58%
same,proportion of copulation,Drosophila suzukii [2]; 0.5% in solvent,zero
same,proportion of copulation,Drosophila suzukii [2]; 1% in solvent,zero
same,time elapsed leading to anesthesia,Drosophila suzukii [3]; female flies (FIG. 17),approximately 4 minutes
same,time elapsed leading to anesthesia,Drosophila suzukii [3]; male flies and female flies,approximately 4 minutes
